Experimental data published in publication PMC8486872, “A rational blueprint for the design of chemically-controlled protein switches” (Nature Communications, 2021).
“And” between values parts separate entries of the source, which are not always exact repeats. Equal values may be shown once.

Key:
[1] = tested on: JAK/STAT pathway SEAP expression in HEK293T cells; assay: CDH-GEMS receptor signaling SEAP assay; type: cell-based; details: Suppl Fig 9b
Excerpt: To test modularity and performance robustness of the CDHs in different molecular contexts, we inserted these modules in the generalizable extracellular molecule sensor (GEMS) receptor signaling pathway platform[24] and built CDH-GEMS. In these constructs the CDHs are localized extracellularly and function as ectodomain switches, fused to the backbone of the erythropoietin receptor, and an intracellular interleukin 6 receptor domain which activates the JAK/STAT pathway (Fig. 3d). The CDH-GEMS trigger the activation of the JAK/STAT pathway by the dimerization of their subunits. Thus, the drugs are expected to split the CDHs inactivating the signaling pathway as assessed by the expression of the reporter protein SEAP. All three CDH-GEMS were responsive to their respective drugs dynamic response range varied from approximately 6-fold (CDH-2) to 8-fold (CDH-1,3) (Fig. 3e). […] The CDH-GEMS were also reversible upon intermittent drug treatment (Supplementary Fig. 7h, i). Despite that comparisons between CDH-TFs and CDH-GEMS are not straightforward due to differences in the reporter signaling pathways, we observe a general trend for the CDHs to present lower IC50s when used as extracellular modules, which is consistent with overcoming drug permeability issues in cells.
HEK293T cells were maintained in DMEM medium with 10% FBS (Gibco) and Pen/Strep (Thermo Fisher). Cells were maintained and split every two days at around 80% confluence. HEK293T cells were seeded 24 h before transfection, and transfected with the lipofectamine 3000 kit (Thermo Fisher). Plasmids were cotransfected according to the Table S7. For the drug OFF-switch experiments, drugs were added 12 h post transfection and incubated with cells for 24 h before the SEAP detection assay.
Secreted alkaline phosphatase (SEAP) activity (U/L) in cell culture supernatants was quantified by kinetic measurements at 405 nm (1 min/measurement for 30 cycles) of absorbance increase due to phosphatase-mediated hydrolysis of para-nitrophenyl phosphate (pNPP).
Apparent IC50s of SPR drug competition assay were calculated using three-parameter nonlinear regression in GraphPad Prism (Version 8.3.0). Representative data of cellular assays are presented as individual values and mean values (bars). n = 3 refers to biological replicates. All IC50/EC50 values of cellular assays (CDH-TF, CDH-GEMS, AIR-TF and AIR-GEMS) reported were calculated using four-parameter nonlinear regression ± s.d.
Supplementary Figure 9: Comparison of ON-state reporter expression of weak affinity variants of LD3 in CDH-1/2-GEMS platform. a) ON-state expression of CDH-1-GEMS with LD3 and LD3_v3. b) Drug dose-dependent responses in engineered cells determined for the CDH-1-GEMS with LD3 and LD3_v3. c) ON-state expression of CDH-2-GEMS with LD3 and LD3_v3. d) Drug dose-dependent responses in engineered cells determined for the CDH-2-GEMS with LD3 and LD3_v3. In the data shown HEK293T cells were […]
quantification was done 24 hours after drug treatment. a, c) The bar charts show the mean ± s.d. of n = 3 biologically independent samples overlaid with a scatter dot plot of the original data points. b, d) Each […]
parameter nonlinear regression.
(1 picture or pasted object on this page, not shown here)

[2] = tested on: SEAP expression in HEK293T cells; assay: MISO designer cells (CDH-1 + CDH-3 dual switches); type: cell-based; parameters: SEAP / Bottom (best-fit value) / Top (best-fit value) / Span (best-fit value): unit not given here; details: for logIC50 (best-fit value): drug in nM; for SEAP, Drug-1 turn OFF CDH-1-TF: Fig S13f; for SEAP, Drug-1 turn OFF CDH-1-GEMS: Fig S13g, representative data
Excerpt: Fig. 5 Orthogonal chemical switches enable implementation of multi-input multi-output control modes in mammalian cells. a Scheme of multi-inputs multi-outputs (MIMO) designer cells where two drugs control two different outputs. b, c Cells were co-transfected with AIR-1/2-GEMS and CDH-3-TF regulate SEAP and Luciferase expression, respectively. […] AIR-1/2-GEMS coupled with SEAP expression circuits were co-transfected with CDH-1/2-TF circuits which control the Luciferase production. Respective drug concentrations ranged from 0.001 nM to 1 µM. […]
We then engineered MISO cells (Fig. 5d) with CDH-1-TF and CDH-3-TF dual switches (Fig. 5e) that encode OFF behaviors controlled by Drug-1 and Drug-3. […] This output behavior is distinct from the typical SISO systems which only show two persistent states (high, low) (Fig. 2c, f). […] This type of output in biological systems could be utilized to produce graded levels of responses that are robust to minor oscillations in drug concentrations, and could be used to dissect fundamental biological processes but also to provide persistent response levels in translational applications.
1-TF and CDH-3-TF circuits. Drug-1 concentrations ranged from 0.001 nM to 1 µM (left) and 1 µM Drug-1 with serial diluted Drug-3 from 0.001 nM to 1 µM (right). g) Quantification of SEAP activity controlled […]
by CDH-1-GEMS and CDH-3-GEMS circuits. […]
Luciferase production (l). b-k) Each data point represents the mean of n = 3 biological replicates, and the dose-dependent curve were fitted using four-parameter nonlinear regression.

[3] = Fig5e SEAP, CDH-1-TF, + 1 µM Drug-3, four-parameter fit
[4] = Fig5f SEAP, CDH-1-GEMS, + 1 µM Drug-3, three-parameter fit

## CN(C)CC#Cc1ccc(OCCCc2sc(N3CCc4cccc(C(=O)Nc5nc6ccccc6s5)c4C3)nc2C(=O)O)c(F)c1 [Drug-1, A-1155463]
[1]; BclxL:LD3, 0.001 nM
  SEAP %: 18.0122% and 17.4443% and 16.8298%
[1]; BclxL:LD3, 0.005 nM
  SEAP %: 16.6899% and 17.1312% and 17.1781%
[1]; BclxL:LD3, 0.01 nM
  SEAP %: 17.4444% and 15.5469% and 16.1047%
[1]; BclxL:LD3, 0.05 nM
  SEAP %: 15.1537% and 15.6285% and 14.5618%
[1]; BclxL:LD3, 0.1 nM
  SEAP %: 14.6667% and 14.1653% and 14.4377%
[1]; BclxL:LD3, 0.5 nM
  SEAP %: 13.4918% and 13.7573% and 13.7645%
[1]; BclxL:LD3, 1 nM
  SEAP %: 11.4623% and 11.7897% and 11.4884%
[1]; BclxL:LD3, 5 nM
  SEAP %: 7.87% and 8.2239% and 7.705%
[1]; BclxL:LD3, 10 nM
  SEAP %: 5.487% and 5.0968% and 5.0693%
[1]; BclxL:LD3, 50 nM
  SEAP %: 4.04% and 4.459% and 3.462%
[1]; BclxL:LD3, 100 nM
  SEAP %: 4.1212% and 3.83% and 3.424%
[1]; BclxL:LD3, 500 nM
  SEAP %: 3.2684% and 3.043% and 3.776%
[1]; BclxL:LD3, 1000 nM
  SEAP %: 3.47% and 3.522% and 3.463%
[1]; BclxL:LD3_v3, 0.001 nM
  SEAP %: 16.3076% and 17.437% and 16.859%
[1]; BclxL:LD3_v3, 0.005 nM
  SEAP %: 14.9031% and 15.6748% and 15.9103%
[1]; BclxL:LD3_v3, 0.01 nM
  SEAP %: 13.8744% and 14.7636% and 15.1685%
[1]; BclxL:LD3_v3, 0.05 nM
  SEAP %: 12.8457% and 12.494% and 13.0699%
[1]; BclxL:LD3_v3, 0.1 nM
  SEAP %: 9.936% and 9.732% and 9.834%
[1]; BclxL:LD3_v3, 0.5 nM
  SEAP %: 8.327% and 7.455% and 7.64%
[1]; BclxL:LD3_v3, 1 nM
  SEAP %: 9.561% and 8.788% and 8.726%
[1]; BclxL:LD3_v3, 5 nM
  SEAP %: 4.582% and 4.8104% and 5.942%
[1]; BclxL:LD3_v3, 10 nM
  SEAP %: 4.563% and 3.586% and 4.47%
[1]; BclxL:LD3_v3, 50 nM
  SEAP %: 5.174% and 5.025% and 4.8595%
[1]; BclxL:LD3_v3, 100 nM
  SEAP %: 4.401% and 4.122% and 4.248%
[1]; BclxL:LD3_v3, 500 nM
  SEAP %: 4.318% and 3.762% and 3.577%
[1]; BclxL:LD3_v3, 1000 nM
  SEAP %: 4.822% and 4.215% and 3.859%
[2]; [3]
  Bottom (best-fit value): 10.05
  HillSlope (best-fit value): -1.155
  Span (best-fit value): 11.2
  Top (best-fit value): 21.26
  logIC50 (best-fit value): 0.9359
[2]; Fig5e, turn OFF CDH-1-TF, 0.001 nM + 1 µM Drug-3
  SEAP: 16.8327 and 22.6453 and 20.005
[2]; Fig5e, turn OFF CDH-1-TF, 0.01 nM + 1 µM Drug-3
  SEAP: 20.9002 and 22.3965 and 21.4625
[2]; Fig5e, turn OFF CDH-1-TF, 0.1 nM + 1 µM Drug-3
  SEAP: 21.6157 and 22.7521 and 21.3586
[2]; Fig5e, turn OFF CDH-1-TF, 1 nM + 1 µM Drug-3
  SEAP: 21.4038 and 20.3272 and 21.0988
[2]; Fig5e, turn OFF CDH-1-TF, 10 nM + 1 µM Drug-3
  SEAP: 13.4848 and 15.392 and 15.5387
[2]; Fig5e, turn OFF CDH-1-TF, 100 nM + 1 µM Drug-3
  SEAP: 11.183 and 12.1962 and 11.7139
[2]; Fig5e, turn OFF CDH-1-TF, 1000 nM + 1 µM Drug-3
  SEAP: 9.72 and 8.497 and 9.661
[2]; [4]
  Bottom (best-fit value): 12.41
  Span (best-fit value): 42.02
  Top (best-fit value): 54.44
  logIC50 (best-fit value): 0.8832
[2]; Fig5f, turn OFF CDH-1-GEMS, 0.001 nM + 1 µM Drug-3
  SEAP: 55.6364 and 50.5517 and 48.8723
[2]; Fig5f, turn OFF CDH-1-GEMS, 0.01 nM + 1 µM Drug-3
  SEAP: 61.2598 and 59.0443 and 45.7788
[2]; Fig5f, turn OFF CDH-1-GEMS, 0.1 nM + 1 µM Drug-3
  SEAP: 46.4102 and 62.6516 and 50.3302
[2]; Fig5f, turn OFF CDH-1-GEMS, 1 nM + 1 µM Drug-3
  SEAP: 57.5516 and 40.155 and 62.0361
[2]; Fig5f, turn OFF CDH-1-GEMS, 10 nM + 1 µM Drug-3
  SEAP: 22.2271 and 39.6828 and 23.9896
[2]; Fig5f, turn OFF CDH-1-GEMS, 100 nM + 1 µM Drug-3
  SEAP: 14.7907 and 24.2066 and 13.0137
[2]; Fig5f, turn OFF CDH-1-GEMS, 1000 nM + 1 µM Drug-3
  SEAP: 8.999 and 11.1728 and 14.7089
[2]; Drug-1 0.001 nM
  SEAP, Drug-1 turn OFF CDH-1-TF: 37.8605 U/L and 37.6407 U/L and 37.2767 U/L
  SEAP, Drug-1 turn OFF CDH-1-GEMS: 63.1346 U/L and 76.9207 U/L and 59.8899 U/L
[2]; Drug-1 0.01 nM
  SEAP, Drug-1 turn OFF CDH-1-TF: 46.3191 U/L and 36.6964 U/L and 37.3836 U/L
  SEAP, Drug-1 turn OFF CDH-1-GEMS: 62.4115 U/L and 58.8113 U/L and 53.5466 U/L
[2]; Drug-1 0.1 nM
  SEAP, Drug-1 turn OFF CDH-1-TF: 40.0956 U/L and 39.4221 U/L and 42.0031 U/L
  SEAP, Drug-1 turn OFF CDH-1-GEMS: 64.3309 U/L and 62.8524 U/L and 59.3961 U/L
[2]; Drug-1 1 nM
  SEAP, Drug-1 turn OFF CDH-1-TF: 42.0045 U/L and 40.1385 U/L and 32.8382 U/L
  SEAP, Drug-1 turn OFF CDH-1-GEMS: 47.8019 U/L and 47.3132 U/L and 39.8687 U/L
[2]; Drug-1 10 nM
  SEAP, Drug-1 turn OFF CDH-1-TF: 31.0901 U/L and 30.8325 U/L and 26.6542 U/L
  SEAP, Drug-1 turn OFF CDH-1-GEMS: 42.6016 U/L and 46.6627 U/L and 42.2581 U/L
[2]; Drug-1 100 nM
  SEAP, Drug-1 turn OFF CDH-1-TF: 22.4541 U/L and 19.9215 U/L and 18.0282 U/L
  SEAP, Drug-1 turn OFF CDH-1-GEMS: 43.3282 U/L and 43.4567 U/L and 33.8379 U/L
[2]; Drug-1 1000 nM
  SEAP, Drug-1 turn OFF CDH-1-TF: 23.3552 U/L and 18.7039 U/L and 14.93 U/L
  SEAP, Drug-1 turn OFF CDH-1-GEMS: 36.4444 U/L and 23.5312 U/L and 44.7329 U/L
